Measured values from US20250230138A1, “COMPOUNDS HAVING A T-STRUCTURE FORMED BY AT LEAST FOUR CYCLES FOR USE IN THE TREATMENT OF CANCER AND OTHER INDICATIONS” (TheRas, Inc., priority 2022, published 2025).
Read-outs that look alike come from different tables or passages of the source.

Legend:
[1] = biological target: Cys242 in human PIK3CA (157-299) (Homo sapiens (Human), UniProt P42336); assay: Covalent modification assay using MALDI-TOF MS; format: biochemical; settings: 4 h reaction time point
Sequence of Cys242 in human PIK3CA (157-299) (P42336 157-299): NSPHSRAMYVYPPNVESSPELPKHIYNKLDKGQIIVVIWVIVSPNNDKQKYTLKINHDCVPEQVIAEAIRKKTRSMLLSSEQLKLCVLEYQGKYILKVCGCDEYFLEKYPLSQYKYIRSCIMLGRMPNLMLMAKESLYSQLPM
Summary of the method: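 PIK3CA (157-299), 3.33 or 1 μM in 20 mM HEPES, 150 mM NaCl, 2 mM MgCl2, pH 7.3, was incubated with compound at room temperature in the dark for 15 min, 30 min, 2 h or 4 h. Linear MALDI-TOF read-out; % modification = adduct peak height over summed heights of all protein species.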

pAKT in BT474 cells = assay: Cell-based pAKT HTRF assay in BT474 cells; settings: BT474 cells, 4 hr incubation, read-out: pAKT inhibition IC50 in BT474 cells
Summary of the method: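 pAKT was measured by HTRF after a 4 hr compound exposure in BT474 cells (DMEM, 10% FBS, 0.25% DMSO), using 9 concentrations from 3 μM in 3-fold steps. Cell lysates were incubated with the Eu cryptate/d2 antibody pair at room temperature for 4 to 24 h. The plate was then read at 320 nm excitation and 615 nm emission.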

[2] = 3.33 μM protein target, 1:7.5 protein to compound ratio (compounds 1-852)
[3] = Homo sapiens, BT-474, Compounds 10-999
[4] = 1 μM protein target, 1:5 protein to compound ratio (compounds 853-1279)

SMILES	% of modification [1, 2]	IC50 (pAKT in BT474 cells; [3]) [nM]	IC50 (pAKT in BT474 cells; Compounds 10-999) [nM]	% of modification [1, 4]	IC50 (pAKT in BT474 cells; Compounds 1000-1279) [nM]
C=CC(=O)N1CCc2nc(-c3nc(-c4ccc5c(c4)CCNC5)c4c(F)csc4c3-c3c(F)cc(F)cc3OCCOC)sc2C1 [Compound 434, 1-[2-[7-[2,4-difluoro-6-(2-methoxyethoxy)phenyl]-3-fluoro-4-(1,2,3,4-tetrahydroisoquinolin-6-yl)thieno[3,2-c]pyridin-6-yl]-6,7-dihydro-4H-thiazolo[5,4-c]pyridin-5-yl]prop-2-en-1-one]	A (percent of modification of PIK3CA protein ≥75%)	100 to 1000	–	–	–
C=CC(=O)N1CCn2nc(-c3nc(-c4ccc5c(cnn5C)c4)c4ccsc4c3-c3c(F)cc(F)cc3OC[C@@H](C)O)cc2[C@@H]1C [Compound 671]	A (percent of modification of PIK3CA protein ≥75%)	–	< 100	–	–
C=CC(=O)N1CC[C@@H](n2cc(-c3nc(-c4cnnc(C)c4)c4ccsc4c3-c3c(F)cc(F)cc3OC(C)C)cn2)C1 [Compound 391]	A (percent of modification of PIK3CA protein ≥75%)	–	< 100	–	–
C=CC(=O)N1CCn2nc(-c3nc(-c4ccc5c(c4)C(=O)NC5)c4ccsc4c3-c3c(F)cc(F)cc3OCCOC)cc2[C@H]1C [Compound 845, 6-((S)-6-((R)-5-acryloyl-4-methyl-4,5,6,7-tetrahydropyrazolo[1,5-a]pyrazin-2-yl)-7-(2,4-difluoro-6-(2-methoxyethoxy)phenyl)thieno[3,2-c]pyridin-4-yl)isoindolin-1-one]	A (percent of modification of PIK3CA protein ≥75%)	< 100	–	–	–
C=CC(=O)N1CCn2nc(-c3nc(-c4ccc5c(c4)NC(=O)CN(C)C5)c4ccsc4c3-c3c(F)cc(F)cc3OCCO)cc2C1C (stereo not shown) [Compound 1195]	–	–	–	A (percent of modification of PIK3CA protein ≥75%)	< 100
C=CC(=O)N1CCn2nc(-c3nc(-c4ccc5c(c4)CNC(=O)C5)c4ccsc4c3-c3c(F)cc(F)cc3OC[C@@H](C)O)cc2[C@H]1C [Compound 896]	–	–	< 100	A (percent of modification of PIK3CA protein ≥75%)	–
C=CC(=O)N1CCc2ncc(-c3nc(-c4cnc5c(c4)CN(C)CC5)c4ccsc4c3-c3ccc(F)cc3OC(C)C)cc2C1 [Compound 319]	A (percent of modification of PIK3CA protein ≥75%)	–	< 100	–	–
C=CC(=O)N1CCn2nc(-c3nc(-c4cn(C)cn4)c4ccsc4c3-c3c(F)cc(F)cc3OCCOC)cc2[C@@H]1C [Compound 777]	A (percent of modification of PIK3CA protein ≥75%)	–	< 100	–	–
C=CC(=O)N1CC(n2cc(-c3nc(-c4ncn(C)n4)c4ccsc4c3-c3ccc(F)cc3OCCOC)cn2)C1 [Compound 85]	A (percent of modification of PIK3CA protein ≥75%)	–	100 to 1000	–	–
C=CC(=O)N1CCn2nc(-c3nc(-c4ccc5c(c4)CNC(=O)C54CC4)c4ccsc4c3-c3c(F)cc(F)cc3OCCO)cc2C1C (stereo not shown) [Compound 1119]	–	–	–	A (percent of modification of PIK3CA protein ≥75%)	< 100
C=C(F)C(=O)N1CCn2nc(-c3nc(-c4ccc(=O)n(C)c4)c4ccsc4c3-c3ccc(F)cc3OCCOC)cc2C1 [Compound 278]	B (50%<percent of modification <75%)	–	100 to 1000	–	–
C=CC(=O)N1CCn2nc(-c3nc(-c4cnn(C)c4)c4ccsc4c3-c3ccc(F)cc3OC(F)F)nc2C1 [Compound 216]	A (percent of modification of PIK3CA protein ≥75%)	–	100 to 1000	–	–
C=CC(=O)N1CCn2nc(-c3nc(-c4ccc5c(c4)CCN(C)C5(C)C)c4ccsc4c3-c3c(F)cc(F)cc3OCCO)cc2C1C (stereo not shown) [Compound 1181]	–	–	–	A (percent of modification of PIK3CA protein ≥75%)	< 100
C=CC(=O)N1CC(n2cc(-c3nc(-c4ccc5c(c4)CNC(=O)C5)c4ccsc4c3-c3ccc(F)cc3OCCOC)cn2)C1 [Compound 72]	A (percent of modification of PIK3CA protein ≥75%)	–	< 100	–	–
C=CC(=O)N1CC[C@H](n2cc(-c3nc(-c4cnn(C)c4)c4ccsc4c3-c3ccc(F)cc3OCC3CCNC(=O)C3)ccc2=O)C1 (stereo partly shown) [Compound 213]	A (percent of modification of PIK3CA protein ≥75%)	–	100 to 1000	–	–
C=CC(=O)N1Cc2cc(-c3nc(-c4cnn(C)c4)c4ccsc4c3-c3c(F)cc(F)cc3OCCO)nn2C[C@H]1C [Compound 673]	D (percent of modification <25%)	–	100 to 1000	–	–
C=CC(=O)N1CCn2nc(-c3nc(-c4ccc5c(c4)CNC5=O)c4ccsc4c3-c3c(F)cc(F)cc3OCCOC)cc2[C@H]1C [Compound 520]	A (percent of modification of PIK3CA protein ≥75%)	–	< 100	–	–
C=CC(=O)N1CCn2nc(-c3nc(-c4ccc(OCC5CN(C)C5)cc4)c4ccsc4c3-c3c(F)cc(F)cc3OCCOC)cc2C1C (stereo not shown) [Compound 1078]	–	–	–	A (percent of modification of PIK3CA protein ≥75%)	< 100

SMILES	% of modification [1, 2]	IC50 (pAKT in BT474 cells; [3]) [nM]	IC50 (pAKT in BT474 cells; Compounds 10-999) [nM]	% of modification [1, 4]	IC50 (pAKT in BT474 cells; Compounds 1000-1279) [nM]
C=CC(=O)N1CCn2nc(-c3nc(-c4ccc(N5CCN(C)CC5)nc4)c4ccsc4c3-c3c(F)cc(F)cc3OCCOC)cc2C1C (stereo not shown) [Compound 930]	–	–	< 100	A (percent of modification of PIK3CA protein ≥75%)	–
CC#CC(=O)N1CCc2nc(-c3nc(-c4ccc5c(c4)CCNC5)c4ccsc4c3-c3ccc(F)cc3OCCOC)sc2C1 [Compound 127]	D (percent of modification <25%)	–	1000 to 3000	–	–
C=CC(=O)N1CCn2nc(-c3nc(-c4cnc5c(c4)CNC5=O)c4ccsc4c3-c3c(F)cc(F)cc3OCCO)cc2C1C (stereo not shown) [Compound 961]	–	–	100 to 1000	A (percent of modification of PIK3CA protein ≥75%)	–
C=CC(=O)N1CCn2nc(-c3nc(-c4ccc(OCCN(C)C)cc4)c4ccsc4c3-c3c(F)cc(F)cc3OCCOC)cc2C1C (stereo not shown) [Compound 993]	–	–	< 100	A (percent of modification of PIK3CA protein ≥75%)	–
C=CC(=O)N1CCn2nc(-c3nc(-c4ccc(OC5CN(C)C5)cc4)c4ccsc4c3-c3c(F)cc(F)cc3OCCO)cc2C1C (stereo not shown) [Compound 1198]	–	–	–	A (percent of modification of PIK3CA protein ≥75%)	< 100
C=CC(=O)N1CCc2ncc(-c3nc(-c4ccc5c(c4)CN(C)CC5(F)F)c4ccsc4c3-c3c(F)cc(F)cc3OCCOC)cc2C1 [Compound 1274]	–	–	–	A (percent of modification of PIK3CA protein ≥75%)	< 100
C=CC(=O)N1Cc2cc(-c3nc(-c4ccc5c(c4)CCN(C)C5)c4ccsc4c3-c3c(F)cc(F)cc3OC(C)C)nn2C[C@H]1C [Compound 479, 1-((R)-2-((S)-7-(2,4-difluoro-6-isopropoxyphenyl)-4-(2-methyl-1,2,3,4-tetrahydroisoquinolin-6-yl)thieno[3,2-c]pyridin-6-yl)-6-methyl-6,7-dihydropyrazolo[1,5-a]pyrazin-5(4H)-yl)prop-2-en-1-one]	A (percent of modification of PIK3CA protein ≥75%)	–	< 100	–	–
C=CC(=O)N1CC[C@H](n2cc(-c3nc(-c4ccc5c(c4)CCN(C)C5)c4ccsc4c3-c3ccc(F)cc3OCCOC)cn2)C1 [Compound 67]	A (percent of modification of PIK3CA protein ≥75%)	–	< 100	–	–
C=C(F)C(=O)N1CCn2nc(-c3nc(-c4cncc(C#N)c4)c4ccsc4c3-c3ccc(F)cc3OC(C)C)cc2C1 [Compound 303]	A (percent of modification of PIK3CA protein ≥75%)	–	100 to 1000	–	–
C=C(F)C(=O)N1CCn2nc(-c3nc(-c4ccc5c(c4)CCN(C)C5)c4ccsc4c3-c3ccc(F)cc3OC(C)C)nc2C1 [Compound 255]	A (percent of modification of PIK3CA protein ≥75%)	–	100 to 1000	–	–
C=CC(=O)N1CC[C@H](n2cc(-c3nc(-c4ccc5c(c4)CCNC5)c4ccsc4c3-c3ccc(F)cc3OCCOC)ccc2=O)C1 [Compound 173]	A (percent of modification of PIK3CA protein ≥75%)	–	100 to 1000	–	–
C=CC(=O)N1CCn2nc(-c3nc(-c4ccc5cnn(C)c(=O)c5c4)c4ccsc4c3-c3c(F)cc(F)cc3OCCO)cc2[C@H]1C [Compound 899]	–	–	< 100	A (percent of modification of PIK3CA protein ≥75%)	–
C=CC(=O)N1CCc2nc(-c3nc(-c4ccc5c(c4)CCN(C)C5)c4ccsc4c3-c3ccc(F)cc3OCCOC)sc2C1 [Compound 107]	A (percent of modification of PIK3CA protein ≥75%)	–	< 100	–	–
C=CC(=O)N1CCc2nc(-c3nc(-c4ccc(=O)[nH]c4)c4ccsc4c3-c3ccc(F)cc3OCCOC)sc2C1 [Compound 131]	A (percent of modification of PIK3CA protein ≥75%)	–	< 100	–	–
C=CC(=O)N1CCc2nc(-c3nc(-c4cnn(C)c4)c4ccsc4c3-c3c(F)cc(F)cc3OCCOC)sc2C1 [Compound 363]	A (percent of modification of PIK3CA protein ≥75%)	–	< 100	–	–
C=CC(=O)N1CCn2nc(-c3nc(-c4ccn5ccnc5c4)c4ccsc4c3-c3c(F)cc(F)cc3OCCOC)cc2C1C (stereo not shown) [Compound 1040]	–	–	–	A (percent of modification of PIK3CA protein ≥75%)	< 100
C=CC(=O)N1Cc2cc(-c3nc(-c4cnn(C)c4)c4ccsc4c3-c3c(F)cc(F)cc3OC[C@@H](C)O)nn2[C@@H](C)C1 [Compound 581]	D (percent of modification <25%)	–	100 to 1000	–	–
